{"source": "paper PMC8170132", "about": "“Kinetics of Abacavir-Induced Remodelling of the Major Histocompatibility Complex Class I Peptide Repertoire” (Frontiers in Immunology, 2021)", "key": {"HLA-B*58:01": {"target": "HLA-B*58:01 (Homo sapiens, UniProt P01889, A329T/C349S/D201E/D98Y/E176V/E187L/E204Q/E69T/G107R/I218V/I90N/K202T/L105A/L119I/N104I/N87E/Q89R/Q94S/R106L/R155S/R180L/R86G/S101N/S121R/S35A/S48A/T118I/V127L/V306I/V36M/Y140S/Y91M)", "settings": "ref [20]–[22]; cited from earlier work"}, "HLA-B*15:02": {"target": "HLA-B*15:02 (Homo sapiens, UniProt P01889, A329T/A93T/A95T/C349S/D201E/D98Y/E187L/E204Q/E69M/E70A/H137Y/K202T/L119I/Q94N/R155S/R180L/S121R/S35A/S48A/T118I/V306I/V36M/Y140S/Y91S)", "settings": "ref [20]–[22]; cited from earlier work"}, "HLA-B*57:01fos [1]": {"target": "T1, HLA-B*57:01fos (Homo sapiens, UniProt P01889, D201E/D98Y/E176V/E187L/E204Q/E69M/E70A/G107R/I90N/K202T/L105A/L119I/N104I/N87E/Q89R/Q94S/R106L/R155S/R180L/R86G/S101N/S121V/S35A/S48A/T118I/V36M/Y140S/Y91M)", "T1 construct": "Fos leucine zipper (C); made in house", "assay": "Fluorescence polarisation dissociation rate measurements", "assay_type": "binding", "settings": "for Effect of abacavir on dissociation of the peptide from HLA-B*57:01fos: 60 µM abacavir with competing peptide; for Half life (hours) of dissociation from HLA-B*57:01fos, Comp+Abacavir / Half life (hours) of dissociation from HLA-B*57:01fos, Comp+Tapasin / Half life (hours) of dissociation from HLA-B*57:01fos, Comp+Tapasin+Abacavir: as Comp; for Half life (hours) of dissociation from HLA-B*57:01fos, Comp+Abacavir: plus 60 µM abacavir; for Half life (hours) of dissociation from HLA-B*57:01fos, Comp+Abacavir / Half life (hours) of dissociation from HLA-B*57:01fos, Comp+Tapasin / Half life (hours) of dissociation from HLA-B*57:01fos, Comp+Tapasin+Abacavir / Half life (hours) of dissociation from HLA-B*57:01fos, Comp: fluorescence polarisation, 25°C, one-phase decay, plateau 50 mP (unconstrained for RVD), 3-4 replicates; for Half life (hours) of dissociation from HLA-B*57:01fos, Comp+Tapasin: plus conjugated tapasin-jun-ERp57 C60A (mostly 0.254 µM); for Half life (hours) of dissociation from HLA-B*57:01fos, Comp+Tapasin+Abacavir: plus tapasin-jun-ERp57 C60A and 60 µM abacavir; for Half life (hours) of dissociation from HLA-B*57:01fos, Comp: PBS + 0.5 mg/ml bovine-gamma-globulin, 20 fold excess human β2m, excess unlabelled competing peptide only; for Tapasin dependent enhancement of dissociation: tapasin-jun-ERp57 C60A with competing peptide; for Rate of dissociation from HLA-B*57:01fos (in words): competing peptide only", "procedure": "(§1) Peptide loaded HLA-B*57:01fos complexes were obtained as described ([50]) by refolding solubilised inclusion bodies of HLA-B*57:01fos heavy chains with human β 2m and UV-labile HLA-B57-conditional peptide ligand.\n(§2) Fluorescence polarisation measurements were taken using a SpectraMax i3x Multi-Mode Microplate Reader (Molecular Devices) with rhodamine detection cartridge. All experiments were conducted at 25°C and used PBS supplemented with 0.5 mg/ml bovine-gamma-globulin (Sigma), and a 20 fold molar excess of human β 2m (Fitzgerald) in a volume of 60 µl. Binding of TAMRA-labelled peptides is reported in millipolarisation units (mP) and is obtained from the equation mP = 1,000 × (S – G × P)/(S + G × P), where S and P are background subtracted fluorescence count rates (S = polarisation emission filter is parallel to the excitation filter; P = polarisation emission filter is perpendicular to the excitation filter) and G (grating) is an instrument and assay dependent factor.\nHLA-B*57:01fos molecules were UV exposed and then allowed to bind fluorescent peptides overnight at room temperature. Florescence polarisation measurements were taken after the addition of excess non-labelled competitor peptide (otherwise identical to the labelled peptide) in the absence or presence of 60 µM abacavir or conjugated tapasin-jun-ERp57 C60A proteins. […] Most experiments used 0.55 µM HLA-B*57:01fos molecules, but some experiments involved different preparations of HLA-B*57:01fos which required higher concentrations of HLA-B*57:01fos, up to a maximum of 1.38 µM HLA-B*57:01fos, to achieve equivalent polarisation levels.\nSupplementary Table 2. Dissociation rates of TAMRA-labelled peptides from HLA-B*57:01fos molecules. The rates at which the indicated peptides dissociated from HLA-B*57:01fos molecules in the presence of excess unlabelled competing peptide (“Comp”), abacavir and tapasin (data shown in figure 7) was measured by Graphpad Prism v9.1.0. The dissociation rates were calculated by performing non-linear regression, using the one-phase decay method, with plateaus constrained to be equal to 50 mP (apart from being unconstrained for RVD peptide). The number of experimental replicates, and the standard deviation in the measured dissociation rates across the replicates is also presented."}, "HLA-B*57:01fos [2]": {"target": "T1, HLA-B*57:01fos", "assay": "Fluorescence polarisation association rate measurements", "assay_type": "binding", "settings": "25°C; for Effect of tapasin on binding of fluorescent peptide to HLA-B*57:01fos: tapasin-jun or tapasin-jun ERp57 C60A conjugate; for Effect of tapasin on binding of fluorescent peptide to HLA-B*57:01fos / Effect of combined abacavir and tapasin on binding of fluorescent peptide to HLA-B*57:01fos / Effect of abacavir on binding of fluorescent peptide to HLA-B*57:01fos: fluorescence polarisation; for Effect of combined abacavir and tapasin on binding of fluorescent peptide to HLA-B*57:01fos: 60 µM abacavir + tapasin-jun; for Effect of abacavir on binding of fluorescent peptide to HLA-B*57:01fos: 60 µM abacavir; for Intrinsic binding of fluorescent peptide to UV exposed HLA-B*57:01fos: peptide alone, fluorescence polarisation (mP)", "procedure": "as §1, §2\nPeptide-receptive HLA-B*57:01fos were obtained by exposing HLA-B*57:01fos complexes loaded with UV labile conditional peptide ligand to ~360 nm light for 20 min at 4°C (“UV exposed” hereafter). The binding of fluorescent peptides to UV exposed HLA-B*57:01fos was monitored in the absence or presence of excess (60 µM) abacavir or tapasin-jun or tapasin-jun ERp57 C60A conjugate. […] Most experiments used 0.55 µM HLA-B*57:01fos molecules, but a minority of experiments involved different preparations of HLA-B*57:01fos which required higher concentrations of HLA-B*57:01fos, up to a maximum of 3.18 µM HLA-B*57:01fos, to achieve equivalent polarisation levels."}}, "data": [{"compound": "Oc1ncnc2[nH]ncc12", "note": "[allopurinol]", "values": [{"measurement": "Odds ratio of hypersensitivity reaction with HLA-B*58:01", "setting": "HLA-B*58:01", "value": "> 500"}]}, {"compound": "NC(=O)N1c2ccccc2C=Cc2ccccc21", "note": "[carbamazepine]", "values": [{"measurement": "Odds ratio of hypersensitivity reaction with HLA-B*15:02", "setting": "HLA-B*15:02", "value": "> 500"}]}, {"compound": "KVFK*LQTSL", "values": [{"measurement": "Effect of abacavir on dissociation of the peptide from HLA-B*57:01fos", "setting": "HLA-B*57:01fos [1]", "value": "pronounced decrease in the dissociation"}, {"measurement": "Half life (hours) of dissociation from HLA-B*57:01fos, Comp+Abacavir", "setting": "HLA-B*57:01fos [1]", "value": 51.83, "unit": "h"}, {"measurement": "Half life (hours) of dissociation from HLA-B*57:01fos, Comp+Tapasin", "setting": "HLA-B*57:01fos [1]", "value": 1.06, "unit": "h"}, {"measurement": "Half life (hours) of dissociation from HLA-B*57:01fos, Comp+Tapasin+Abacavir", "setting": "HLA-B*57:01fos [1]", "value": 2.47, "unit": "h"}, {"measurement": "Half life (hours) of dissociation from HLA-B*57:01fos, Comp", "setting": "HLA-B*57:01fos [1]", "value": 3.27, "unit": "h"}, {"measurement": "Tapasin dependent enhancement of dissociation", "setting": "HLA-B*57:01fos [1]", "value": "significant"}, {"measurement": "Effect of tapasin on binding of fluorescent peptide to HLA-B*57:01fos", "setting": "HLA-B*57:01fos [2]", "value": "only slightly enhanced binding"}]}, {"compound": "NTVELRVK*I", "values": [{"measurement": "Effect of abacavir on dissociation of the peptide from HLA-B*57:01fos", "setting": "HLA-B*57:01fos [1]", "value": "pronounced decrease in the dissociation"}, {"measurement": "Half life (hours) of dissociation from HLA-B*57:01fos, Comp+Abacavir", "setting": "HLA-B*57:01fos [1]", "value": 233.60, "unit": "h"}, {"measurement": "Half life (hours) of dissociation from HLA-B*57:01fos, Comp+Tapasin", "setting": "HLA-B*57:01fos [1]", "value": 1.60, "unit": "h"}, {"measurement": "Half life (hours) of dissociation from HLA-B*57:01fos, Comp+Tapasin+Abacavir", "setting": "HLA-B*57:01fos [1]", "value": 142.70, "unit": "h"}, {"measurement": "Half life (hours) of dissociation from HLA-B*57:01fos, Comp", "setting": "HLA-B*57:01fos [1]", "value": 2.67, "unit": "h"}, {"measurement": "Tapasin dependent enhancement of dissociation", "setting": "HLA-B*57:01fos [1]", "value": "minimal"}, {"measurement": "Effect of tapasin on binding of fluorescent peptide to HLA-B*57:01fos", "setting": "HLA-B*57:01fos [2]", "value": "did not affect the binding"}]}, {"compound": "RVDPAK*GLFYF", "values": [{"measurement": "Effect of abacavir on dissociation of the peptide from HLA-B*57:01fos", "setting": "HLA-B*57:01fos [1]", "value": "modestly enhanced"}, {"measurement": "Half life (hours) of dissociation from HLA-B*57:01fos, Comp+Abacavir", "setting": "HLA-B*57:01fos [1]", "value": 0.26, "unit": "h"}, {"measurement": "Half life (hours) of dissociation from HLA-B*57:01fos, Comp+Tapasin", "setting": "HLA-B*57:01fos [1]", "value": 0.35, "unit": "h"}, {"measurement": "Half life (hours) of dissociation from HLA-B*57:01fos, Comp+Tapasin+Abacavir", "setting": "HLA-B*57:01fos [1]", "value": 0.26, "unit": "h"}, {"measurement": "Rate of dissociation from HLA-B*57:01fos (in words)", "setting": "HLA-B*57:01fos [1]", "value": "minutes"}, {"measurement": "Half life (hours) of dissociation from HLA-B*57:01fos, Comp", "setting": "HLA-B*57:01fos [1]", "value": 0.31, "unit": "h"}, {"measurement": "Effect of combined abacavir and tapasin on binding of fluorescent peptide to HLA-B*57:01fos", "setting": "HLA-B*57:01fos [2]", "value": "tapasin partially mitigated this effect"}, {"measurement": "Effect of abacavir on binding of fluorescent peptide to HLA-B*57:01fos", "setting": "HLA-B*57:01fos [2]", "value": "enhanced by abacavir during the first hour"}, {"measurement": "Intrinsic binding of fluorescent peptide to UV exposed HLA-B*57:01fos", "setting": "HLA-B*57:01fos [2]", "value": "poor binding"}]}, {"compound": "TSLK*SRVTI", "values": [{"measurement": "Effect of abacavir on dissociation of the peptide from HLA-B*57:01fos", "setting": "HLA-B*57:01fos [1]", "value": "pronounced decrease in the dissociation"}, {"measurement": "Half life (hours) of dissociation from HLA-B*57:01fos, Comp+Abacavir", "setting": "HLA-B*57:01fos [1]", "value": 22.41, "unit": "h"}, {"measurement": "Half life (hours) of dissociation from HLA-B*57:01fos, Comp+Tapasin", "setting": "HLA-B*57:01fos [1]", "value": 5.12, "unit": "h"}, {"measurement": "Half life (hours) of dissociation from HLA-B*57:01fos, Comp+Tapasin+Abacavir", "setting": "HLA-B*57:01fos [1]", "value": 10.38, "unit": "h"}, {"measurement": "Half life (hours) of dissociation from HLA-B*57:01fos, Comp", "setting": "HLA-B*57:01fos [1]", "value": 7.41, "unit": "h"}, {"measurement": "Effect of combined abacavir and tapasin on binding of fluorescent peptide to HLA-B*57:01fos", "setting": "HLA-B*57:01fos [2]", "value": "occurred faster than in the presence of tapasin or abacavir alone"}, {"measurement": "Effect of abacavir on binding of fluorescent peptide to HLA-B*57:01fos", "setting": "HLA-B*57:01fos [2]", "value": "binding strongly enhanced"}, {"measurement": "Intrinsic binding of fluorescent peptide to UV exposed HLA-B*57:01fos", "setting": "HLA-B*57:01fos [2]", "value": "limited intrinsic ability to bind"}, {"measurement": "Effect of tapasin on binding of fluorescent peptide to HLA-B*57:01fos", "setting": "HLA-B*57:01fos [2]", "value": "binding strongly enhanced"}]}, {"compound": "VTKK*TYEIW [TAMRA labelled canonical HLA-B*57:01 peptide]", "values": [{"measurement": "Effect of abacavir on dissociation of the peptide from HLA-B*57:01fos", "setting": "HLA-B*57:01fos [1]", "value": "minimal impact on the dissociation"}, {"measurement": "Half life (hours) of dissociation from HLA-B*57:01fos, Comp+Abacavir", "setting": "HLA-B*57:01fos [1]", "value": 373.30, "unit": "h"}, {"measurement": "Half life (hours) of dissociation from HLA-B*57:01fos, Comp+Tapasin", "setting": "HLA-B*57:01fos [1]", "value": 207.90, "unit": "h"}, {"measurement": "Half life (hours) of dissociation from HLA-B*57:01fos, Comp+Tapasin+Abacavir", "setting": "HLA-B*57:01fos [1]", "value": 198.40, "unit": "h"}, {"measurement": "Rate of dissociation from HLA-B*57:01fos (in words)", "setting": "HLA-B*57:01fos [1]", "value": "hundreds of hours"}, {"measurement": "Half life (hours) of dissociation from HLA-B*57:01fos, Comp", "setting": "HLA-B*57:01fos [1]", "value": 374.80, "unit": "h"}, {"measurement": "Effect of combined abacavir and tapasin on binding of fluorescent peptide to HLA-B*57:01fos", "setting": "HLA-B*57:01fos [2]", "value": "did not enhance the binding"}, {"measurement": "Intrinsic binding of fluorescent peptide to UV exposed HLA-B*57:01fos", "setting": "HLA-B*57:01fos [2]", "value": "bound to HLA-B*57:01 molecules"}, {"measurement": "Effect of tapasin on binding of fluorescent peptide to HLA-B*57:01fos", "setting": "HLA-B*57:01fos [2]", "value": "catalysed binding of the VTK and ITT peptides to a greater extent than abacavir"}]}]}
